According to PubChem BioAssay (NCI):
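All cell lines were grown in 96-well plates and treated with compound for 48 hours. TGI: total growth inhibition.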

What was measured:
Test in all cases: NCI-60 cell line screen, 48 h
NCI-H23 lung = tested on: NCI-H23 lung
COLO 205 colon = tested on: COLO 205 colon
HCC-2998 colon = tested on: HCC-2998 colon
MOLT-4 leukemia = tested on: MOLT-4 leukemia
DMS 114 small cell lung = tested on: DMS 114 small cell lung
SN12C renal = tested on: SN12C renal
RPMI-8226 leukemia = tested on: RPMI-8226 leukemia
DMS 273 small cell lung = tested on: DMS 273 small cell lung
OVCAR-4 ovarian = tested on: OVCAR-4 ovarian
SR leukemia = tested on: SR leukemia
NCI-H226 lung = tested on: NCI-H226 lung
SF-268 CNS = tested on: SF-268 CNS
NCI-H460 lung = tested on: NCI-H460 lung
HL-60(TB) leukemia = tested on: HL-60(TB) leukemia
HCT-116 colon = tested on: HCT-116 colon
DLD-1 colon = tested on: DLD-1 colon
IGROV1 ovarian = tested on: IGROV1 ovarian
SF-539 CNS = tested on: SF-539 CNS
HOP-92 NSCLC = tested on: HOP-92 NSCLC
SNB-75 CNS = tested on: SNB-75 CNS
UO-31 renal = tested on: UO-31 renal
HOP-62 NSCLC = tested on: HOP-62 NSCLC
SK-MEL-2 melanoma = tested on: SK-MEL-2 melanoma
NCI-H522 lung = tested on: NCI-H522 lung
SK-OV-3 ovarian = tested on: SK-OV-3 ovarian
CAKI-1 renal = tested on: CAKI-1 renal
M19-MEL melanoma = tested on: M19-MEL melanoma
UACC-62 melanoma = tested on: UACC-62 melanoma
K-562 leukemia = tested on: K-562 leukemia
SK-MEL-28 melanoma = tested on: SK-MEL-28 melanoma
SNB-78 CNS = tested on: SNB-78 CNS
XF 498 CNS = tested on: XF 498 CNS
M14 melanoma = tested on: M14 melanoma
MALME-3M melanoma = tested on: MALME-3M melanoma
A498 renal = tested on: A498 renal
LXFL 529 NSCLC = tested on: LXFL 529 NSCLC
786-0 renal = tested on: 786-0 renal
CCRF-CEM leukemia = tested on: CCRF-CEM leukemia

Measured: TGI

Cc1[nH]c(=O)nc(N/N=C/c2ccc(O)cc2)c1C(=O)Nc1ccc(O)cc1
> 100 µM: all assays above
